Here are results for 1 molecule from patent US5534495A, “Treatment of non-HIV neuropathic pain syndromes” (Advanced Peptides and Biotechnology Sciences, priority 1995, dated 1996).

The structures appear in SMILES notation.

Test [1] concerns dissociated hippocampal and/or cortical neurons. In words: Neuronal survival assay in vitro (5-day exposure). It counts as cell-based, rat. On the procedure:
(§1) The neuroprotective and neurotropic actions of the herein defined peptides were determined by their effects upon fetal rodent neuronal cultures. […] The dissociated cells were be plated at low density (50,000 cells/35-mm dish) upon confluent layers of astrocytes. The astrocyte feeder layers were prepared from the hippocampi and/or cortices of 2-day-old rat pups. Following treatment with 0,125% trypsin for 15 min, the tissue was triturated and plated at 2.5×10^5 cells into 35-mm tissue culture dishes coated with Vintrogen (Collagen, Palo Alto) and poly-L-lysine (M1 30-70K 10^-5 M borate, pH 8.4, Sigma). The resulting feeder layers were grown in Eagle's minimal essential medium (MEM, formula 82-0234, Gibco) with 10% fetal bovine serum until confluent (12-14 days); feeder layers prepared in this way were devoid of neurons and consisted predominantly of flat cells that were stained by antibodies to glia fibrillary acidic protein. When hippocampal and/or cortical neurons were added to the confluent feeder cultures, the medium was changed to 94% MEM, 5% horse serum (Gibco) and an added nutrient supplement containing insulin, transferrin, putrescine, selenium, corticosterone, progesterone and triiodothyronine. The resulting mixed neuron/glia cultures are treated one day after plating with 5'-fluoro-2'-deoxyuridine (15 μg/ml plus uridine, 35Mg/ml) to suppress the overgrowth of background cells. The neuronal cultures were allowed to grow for one week prior to the beginning of the experimental period and the medium was changed prior to adding peptides or controls.
The test period of exposure to peptides was five days long, a period in which cell survivability can be accurately quantitated. […] Neurons were counted in 100 fields at predetermined stage coordinates. Cultures were coded and counted in a blinded fashion without knowledge of sample treatment. The total area counted was 50 mm^2. […] The maximum effect was detected at 0.1 nM, with approximately a 25% increase in cell survival compared to vehicle (Control) treated cultures.

In test [2] the test system is hippocampal neuronal cells. In words: Twenty one day survival of hippocampal neuronal cell cultures. It counts as cell-based, rat. The settings on record: 0.1 nM. How it is done:
as §1, with “The resulting mixed neuron/glia cultures are treated one day after plating with 5'-fluoro-2'-deoxyuridine (15 μg/ml plus uridine, 35Mg/ml) to suppress the overgrowth of background cells. The neuronal cultures were allowed to grow for one week prior to the beginning of the experimental period and the medium was changed prior to adding peptides or controls.” left out

On to `C[C@@H](N)C(=O)N[C@@H](CO)C(=O)N[C@H](C(=O)N[C@H](C(=O)N[C@H](C(=O)N[C@@H](CC(N)=O)C(=O)N[C@@H](Cc1ccc(O)cc1)C(=O)N[C@H](C(N)=O)[C@@H](C)O)[C@@H](C)O)[C@@H](C)O)[C@@H](C)O` [DAPTA], for which the “effect on neuronal survival (neuronal cell count as percentage of Control)” value in test [1] (7-day-old neuronal cultures, five days exposure, vs vehicle control, FIG. 1) is on record as “caused an increase in neuronal survival”. Further, the “increase in cell survival compared to vehicle (Control) treated cultures” value in test [1] (at 0.1 nM (maximum effect), five days) is roughly 25%. Also, in test [1] (five days exposure, FIG. 1), the “concentration of maximum effect on neuronal survival” value is recorded as 0.1 nM. For the same molecule, the “increase in cell survival compared to vehicle treated cultures” value in test [2] (after twenty one days, FIG. 2) was 4 fold. In test [2] (at all times during the twenty one day test period, vs vehicle), the “cell survival rate over the test period” value was “enhanced”.
